Species: Rattus norvegicus
Assay: DrugMatrix - Regimen: Daily Repeat
Format: toxicity, organism-based, Sprague-Dawley
Set-up: regimen Daily Repeat, gender Male, age 6-8 weeks
Settings: in vivo, po, route oral GAVAGE, vehicle .5 % CMC; for ABSOLUTE BASOPHIL / ABSOLUTE EOSINOPHIL / ABSOLUTE LYMPHOCYTE / ABSOLUTE MONOCYTE / ABSOLUTE SEGMENTED NEUTROPHIL / BASOPHIL / EOSINOPHIL / ERYTHROCYTE COUNT / HEMATOCRIT / HEMOGLOBIN / LEUKOCYTE COUNT / LYMPHOCYTE / MEAN CORPUSCULAR HEMOGLOBIN / MEAN CORPUSCULAR HEMOGLOBIN CONCENTRATION / MONOCYTE / NEUTROPHIL / NUCLEATED RED BLOOD CELLS / PLATELET COUNT: tissue Blood; for ALANINE AMINOTRANSFERASE / ALBUMIN / ALKALINE PHOSPHATASE / ASPARTATE AMINOTRANSFERASE / BLOOD UREA NITROGEN / CARBON DIOXIDE / CHLORIDE / CHOLESTEROL / CREATINE PHOSPHOKINASE / CREATININE / GLUCOSE / LACTATE DEHYDROGENASE / LIPASE / PHOSPHORUS / POTASSIUM / SODIUM / TOTAL BILIRUBIN / TOTAL PROTEIN / URIC ACID: tissue Plasma
[1] = 0 mg/kg, 72 h, dose level Control, time 3 day
[2] = 0 mg/kg, 120 h, dose level Control, time 5 day
[3] = 10 mg/kg, 72 h, dose level Low, time 3 day

## O=C1C(CC[S+]([O-])c2ccccc2)C(=O)N(c2ccccc2)N1c1ccccc1 (stereo not given) [SULFINPYRAZONE]
[1]
  ABSOLUTE BASOPHIL: 0 CELLS/uL
  ABSOLUTE EOSINOPHIL: 171.33 CELLS/uL
  ABSOLUTE LYMPHOCYTE: 13776.5 CELLS/uL
  ABSOLUTE MONOCYTE: 180.83 CELLS/uL
  ABSOLUTE SEGMENTED NEUTROPHIL: 1121.33 CELLS/uL
  BASOPHIL: 0%
  EOSINOPHIL: 1%
  ERYTHROCYTE COUNT: 5.56 x10E6/uL
  HEMATOCRIT: 34.75%
  HEMOGLOBIN: 13.68 G/DL
  LEUKOCYTE COUNT: 15.25 x10E3/uL
  LYMPHOCYTE: 90.17%
  MEAN CORPUSCULAR HEMOGLOBIN: 24.6 pg
  MEAN CORPUSCULAR HEMOGLOBIN CONCENTRATION: 39.4 G/DL
  MONOCYTE: 1.17%
  NEUTROPHIL: 7.67%
  NUCLEATED RED BLOOD CELLS: 0 /100WBC
  PLATELET COUNT: 1342 x10E3/uL
  ALANINE AMINOTRANSFERASE: 49.67 u/L
  ALBUMIN: 4.15 G/DL
  ALKALINE PHOSPHATASE: 346.83 u/L
  ASPARTATE AMINOTRANSFERASE: 108.17 u/L
  BLOOD UREA NITROGEN: 17.33 mg/dL
  CARBON DIOXIDE: 25 mmol/L
  CHLORIDE: 100.83 MEQ/L
  CHOLESTEROL: 66.83 mg/dL
  CREATINE PHOSPHOKINASE: 788 u/L
  CREATININE: 0.18 mg/dL
  GLUCOSE: 151.67 mg/dL
  LACTATE DEHYDROGENASE: 982.5 u/L
  LIPASE: 10.33 u/L
  PHOSPHORUS: 11.23 mg/dL
  POTASSIUM: 6.37 MEQ/L
  SODIUM: 141.02 MEQ/L
  TOTAL BILIRUBIN: 0.18 mg/dL
  TOTAL PROTEIN: 5.9 G/DL
  URIC ACID: 1.8 mg/dL
[2]
  ABSOLUTE BASOPHIL: 0 CELLS/uL
  ABSOLUTE EOSINOPHIL: 69 CELLS/uL
  ABSOLUTE LYMPHOCYTE: 13632.83 CELLS/uL
  ABSOLUTE MONOCYTE: 139.83 CELLS/uL
  ABSOLUTE SEGMENTED NEUTROPHIL: 1225 CELLS/uL
  BASOPHIL: 0%
  EOSINOPHIL: 0.33%
  ERYTHROCYTE COUNT: 5.52 x10E6/uL
  HEMATOCRIT: 33.98%
  HEMOGLOBIN: 13.22 G/DL
  LEUKOCYTE COUNT: 15.07 x10E3/uL
  LYMPHOCYTE: 90.83%
  MEAN CORPUSCULAR HEMOGLOBIN: 23.95 pg
  MEAN CORPUSCULAR HEMOGLOBIN CONCENTRATION: 38.9 G/DL
  MONOCYTE: 0.83%
  NEUTROPHIL: 8%
  NUCLEATED RED BLOOD CELLS: 0 /100WBC
  PLATELET COUNT: 1196 x10E3/uL
  ALANINE AMINOTRANSFERASE: 49.17 u/L
  ALBUMIN: 4.2 G/DL
  ALKALINE PHOSPHATASE: 352.33 u/L
  ASPARTATE AMINOTRANSFERASE: 89.67 u/L
  BLOOD UREA NITROGEN: 18 mg/dL
  CARBON DIOXIDE: 27.67 mmol/L
  CHLORIDE: 101 MEQ/L
  CHOLESTEROL: 72.83 mg/dL
  CREATINE PHOSPHOKINASE: 417.5 u/L
  CREATININE: 0.18 mg/dL
  GLUCOSE: 150.5 mg/dL
  LACTATE DEHYDROGENASE: 517.33 u/L
  LIPASE: 9 u/L
  PHOSPHORUS: 11.87 mg/dL
  POTASSIUM: 6.57 MEQ/L
  SODIUM: 143.62 MEQ/L
  TOTAL BILIRUBIN: 0.2 mg/dL
  TOTAL PROTEIN: 6.08 G/DL
  URIC ACID: 1.45 mg/dL
[3]
  ABSOLUTE BASOPHIL: 0 CELLS/uL
  ABSOLUTE EOSINOPHIL: 153.67 CELLS/uL
  ABSOLUTE LYMPHOCYTE: 13327.33 CELLS/uL
  ABSOLUTE MONOCYTE: 157.33 CELLS/uL
  ABSOLUTE SEGMENTED NEUTROPHIL: 995 CELLS/uL
  BASOPHIL: 0%
  EOSINOPHIL: 1%
  ERYTHROCYTE COUNT: 5.31 x10E6/uL
  HEMATOCRIT: 34.03%
  HEMOGLOBIN: 13.67 G/DL
  LEUKOCYTE COUNT: 14.63 x10E3/uL
  LYMPHOCYTE: 91%
  MEAN CORPUSCULAR HEMOGLOBIN: 25.73 pg
  MEAN CORPUSCULAR HEMOGLOBIN CONCENTRATION: 40.17 G/DL
  MONOCYTE: 1%
  NEUTROPHIL: 7%
  NUCLEATED RED BLOOD CELLS: 0 /100WBC
  PLATELET COUNT: 1352.33 x10E3/uL
  ALANINE AMINOTRANSFERASE: 52.33 u/L
  ALBUMIN: 4.23 G/DL
  ALKALINE PHOSPHATASE: 353.33 u/L
  ASPARTATE AMINOTRANSFERASE: 105.67 u/L
  BLOOD UREA NITROGEN: 15.33 mg/dL
  CARBON DIOXIDE: 25.67 mmol/L
  CHLORIDE: 100.33 MEQ/L
  CHOLESTEROL: 80.33 mg/dL
  CREATINE PHOSPHOKINASE: 490.67 u/L
  CREATININE: 0.21 mg/dL
  GLUCOSE: 150.33 mg/dL
  LACTATE DEHYDROGENASE: 722 u/L
  LIPASE: 10.33 u/L
  PHOSPHORUS: 12.1 mg/dL
  POTASSIUM: 6.22 MEQ/L
  SODIUM: 143.2 MEQ/L
  TOTAL BILIRUBIN: 0.2 mg/dL
  TOTAL PROTEIN: 6.03 G/DL

From ChEMBL document CHEMBL3885881, “DrugMatrix”
